Columns and labels:
[1] = test system: T. cruzi trypomastigotes, Dm28 strain; test: Resazurin viability assay on free T. cruzi trypomastigotes; details: Trypanosoma cruzi, 24 h, read-out: Viability T. cruzi (%)
Method in brief: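 Free Dm28 T. cruzi trypomastigotes were exposed to compounds at 100 µM for 24 h, with nifurtimox as positive control and untreated parasites as negative control. Resazurin (3 mM final) with 0.8 mM phenazine was then added for 3 h at 37°C, and fluorescence was read at 560/590 nm.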

[2] = Lipophilicity by reversed-phase TLC (RM); details: reverse phase-C18, DMSO/phosphate buffer pH 7.4 (70:30 vol/vol), RM = log[(1/Rf) – 1]
Description: Lipophilicity was studied by reversed-phase TLC experiments. Precoated TLC plates SIL RP-18W/UV254 were used and eluted with DMSO/physiological serum (70:30, vol/vol). Stock solutions were prepared in pure DMSO (Aldrich) prior to use. The plates were developed in a closed chromatographic tank, dried, and the spots were located under UV light. The Rf values were averaged from three determinations and converted into RM values via the relationship: RM = log [(1/Rf)−1]

[3] = test system: T. gondii (RH strain) in BeWo cells; test: T. gondii DNA load in infected BeWo cells by real-time qPCR; assay type: cell-based, Toxoplasma gondii; details: IC50 concentration
Description: (§1) Cells or HPE were exposed to parasites. […] The following treatment conditions were used in both infection models. […] Untreated cells or HPE served as a negative control, and the compounds’ activity was compared with the reference drugs (NFX and PMN).
Subsequently, cells were exposed to parasites at a 1:1 ratio (cell: parasite) for 24 hours. Finally, the cells were washed with PBS and harvested using trypsin. For the parasitic DNA load in the ex vivo infection model, HPE was incubated in 24-well plates and exposed to parasites at a concentration of 10^5 parasites/mL for 24 hours. Finally, they were washed with PBS and homogenized using the ultraturrax homogenizer OMNI TipTM. Genomic DNA was extracted from BeWo cells or HPE using the Wizard Genomic DNA Purification Kit (Promega, USA) following the manufacturer’s instructions. The resulting DNA was quantified using a μDrop Plate DNA quantification system on the Varioskan Flash multimode reader (Thermo Scientific, USA). For the amplification of human DNA and parasitic DNA, three pairs of primers specific for human GAPDH (hGADPH), T. cruzi satellite DNA, and T. gondii B1 gene DNA were used (Table 7). Each reaction mixture contained 0.5 µL of 10 nM of each primer (Forward and reverse), 1 ng of DNA from T. cruzi samples, 10 ng of DNA from T. gondii samples, 10 µL of SensiFASTTM SYBR Hi-ROX kit (Bioline, Heidelberg, Baden Württemberg, Germany), and ultrapure water (Sigma-Aldrich, St. Louis, MO, USA) for a total of 20 µL.
Amplification was carried out using the CFX96 Touch Deep Well Real-Time PCR Detection System (Biorad, California, USA) with the following cycling program: initial denaturation at 95°C for 3 min, followed by 40 cycles of denaturation at 95°C for 5 s, annealing at 60°C for 30 s, and a dissociation stage ranging from 60°C to 95°C. The relative quantification analysis of the results was expressed as RQ values using the comparative […] (∆∆Ct) ([80]).

[4] = test system: T. gondii tachyzoites, RH strain; test: Resazurin viability assay on free T. gondii tachyzoites; assay type: cell-based, Toxoplasma gondii
Source text: Untreated parasites served as a negative control.

[5] = test system: T. gondii (RH strain) in BeWo cells; test: Infection of BeWo cells by T. gondii, infected cells counted by fluorescence microscopy; assay type: cell-based, Toxoplasma gondii; details: compound at IC50, untreated control 64 ± 6
Description: The effect of the compounds on the infection of BeWo trophoblast cells by T. gondii and T. cruzi was assessed. The DNA of T. gondii and T. cruzi was quantified in infected BeWo cells treated for 24 hours under two conditions: co-incubation and post-infection treatment. […] Fluorescence microscopy was employed to quantify the number of infected cells. The resulting images were analyzed using ImageJ software to count both infected and uninfected cells.
For the microscopic analysis of BeWo cells infected with T. cruzi, the cells were washed with PBS to remove the supernatant, fixed with 90% cold methanol, rewashed with PBS, and incubated for 5 minutes with 1 µg/mL—1 4,6-diamidino-2-phenylindole (DAPI) (Molecular Probes). To analyze BeWo cells infected with T. gondii, cells were fixed with 90% cold methanol, washed with PBS containing 0.05% Tween, and blocked using 3% BSA for 1 hour at 37°C. Then, they were incubated with the primary monoclonal antibody Toxoplasma gondii (TP3): sc-52255 at a dilution of 1:500 with 1% BSA overnight at 4°C. Afterward, the samples were incubated with the FITC anti-mouse IgG secondary antibody at a dilution of 1:100 with 1% BSA for 1 hour at 37°C. Finally, they were washed with PBS containing 0.05% Tween and incubated for 5 minutes with DAPI. Subsequently, the sections were mounted in Vectashield (ScyTek ACA). Sections for the analysis of cell infection by T. cruzi and T. gondii were observed under an epifluorescence microscope (Motic BA 310), and images were captured with a Motic 5 camera. T. cruzi amastigotes were identified by their morphology, including nuclear size and the presence of a kinetoplast, and were analyzed and quantified using ImageJ. At least 500 cells per condition were analyzed, and infected and non-infected cells were counted for every 100 cells ([35], [70]).
as §1

C/C(=N\NC(N)=S)c1c(O)c2cc([N+](=O)[O-])ccc2oc1=O [Compound 1, (E)−2-(1-(4-hydroxy-6-nitro-2-oxo-2H-chromen-3-yl)ethylidene)hydrazine-1-carbothioamide]
viability at 100 µM [1]: 85.5 ± 11.3% | Lipophilicity (RM) [2]: 0.00 | decrease in parasite DNA load ([3]; co-incubation): around 50% | effect on parasite DNA load ([3]; post-infection treatment): no activity against the intracellular form | IC50 ([4]; Toxoplasma gondii, extracellular tachyzoites RH strain, 24 h, resazurin): 17.3 ± 0.5 µM | viability at 100 µM ([4]; Toxoplasma gondii, tachyzoites RH, 100 µM, 24 h): 24.3 ± 10.4% | SI = BeWo CC50/parasite IC50 ([4]; parasite T. gondii): 22.3 | SI = EA.hy926 CC50/parasite IC50 ([4]; parasite T. gondii): >23.1 | Infected cells (%) ([5]; co-incubation 24 h): 32 ± 7% | Infected cells (%) ([5]; post-infection treatment 24 h): 52 ± 4%
